In ChEMBL document CHEMBL4428102, “Discovery of an Orally Bioavailable Gonadotropin-Releasing Hormone Receptor Antagonist” (J Med Chem, 2016):
The source made the active and inactive calls. The rule behind the calls is not given here.

What was measured:
[1] = Cmax in Sprague-Dawley rat at 10 mg/kg, po by mass spectrometry; assay type: ADME, organism-based; parameters: dose 10 mg/kg, route oral; conditions: in vivo
[2] = Cmax in beagle dog at 10 mg/kg, po by mass spectrometry; assay type: ADME, organism-based, Canis lupus familiaris; parameters: dose 10 mg/kg, route oral; conditions: in vivo
[3] = Cmax in castrated cynomolgus monkey at 10 mg/kg, po by mass spectrometry; assay type: ADME, organism-based, Macaca fascicularis; parameters: dose 10 mg/kg, route oral; conditions: male, in vivo
[4] = Tmax in Sprague-Dawley rat at 10 mg/kg, po by mass spectrometry; assay type: ADME, organism-based; conditions: in vivo
[5] = Tmax in beagle dog at 10 mg/kg, po by mass spectrometry; assay type: ADME, organism-based, Canis lupus familiaris; conditions: in vivo
[6] = Tmax in castrated cynomolgus monkey at 10 mg/kg, po by mass spectrometry; assay type: ADME, organism-based, Macaca fascicularis; conditions: male, in vivo
[7] = Half life in Sprague-Dawley rat at 10 mg/kg, po by mass spectrometry; assay type: ADME, organism-based; conditions: in vivo
[8] = Half life in beagle dog at 10 mg/kg, po by mass spectrometry; assay type: ADME, organism-based, Canis lupus familiaris; conditions: in vivo
[9] = Half life in castrated cynomolgus monkey at 10 mg/kg, po by mass spectrometry; assay type: ADME, organism-based, Macaca fascicularis; conditions: male, in vivo
[10] = AUC (infinity) in Sprague-Dawley rat at 10 mg/kg, po by mass spectrometry; assay type: ADME, organism-based; parameters: dose 10 mg/kg, route oral, time infinity; conditions: in vivo
[11] = AUC (infinity) in beagle dog at 10 mg/kg, po by mass spectrometry; assay type: ADME, organism-based, Canis lupus familiaris; parameters: dose 10 mg/kg, time infinity, route oral; conditions: in vivo
[12] = AUC (infinity) in castrated cynomolgus monkey at 10 mg/kg, po by mass spectrometry; assay type: ADME, organism-based, Macaca fascicularis; parameters: dose 10 mg/kg, route oral, time infinity; conditions: male, in vivo
[13] = Oral bioavailability in Sprague-Dawley rat at 10 mg/kg by mass spectrometry; assay type: ADME, organism-based; conditions: in vivo
[14] = Oral bioavailability in beagle dog at 10 mg/kg by mass spectrometry; assay type: ADME, organism-based, Canis lupus familiaris; conditions: in vivo
[15] = Oral bioavailability in castrated cynomolgus monkey at 10 mg/kg by mass spectrometry; assay type: ADME, organism-based, Macaca fascicularis; conditions: male, in vivo
[16] = test system: Cynomolgus monkey; assay: Reduction in serum LH level in castrated male cynomolgus monkey at 30 mg/kg, po administered as single dose after 12 hrs by RIA method; assay type: functional; conditions: Macaca fascicularis
[17] = AUC in castrated male cynomolgus monkey at 30 mg/kg, po administered as single dose; assay type: ADME, organism-based, Macaca fascicularis; conditions: in vivo
[18] = Cmax in castrated male cynomolgus monkey at 30 mg/kg, po administered as single dose; assay type: ADME, organism-based, Macaca fascicularis; parameters: dose 30 mg/kg, route oral; conditions: in vivo
[19] = test system: Cynomolgus monkey; assay: Reduction in serum LH level in castrated male cynomolgus monkey at 30 mg/kg, po administered as single dose after 24 hrs by RIA method; assay type: functional; conditions: Macaca fascicularis
[20] = Selectivity index, ratio of IC50 for antagonist activity against monkey GnRH receptor expressed in HEK293 cells to IC50 for antagonist activity against human GnRH receptor expressed in HEK293 cells; assay type: cell-based
[21] = Selectivity index, ratio of IC50 for antagonist activity against rat GnRH receptor expressed in HEK293 cells to IC50 for antagonist activity against human GnRH receptor expressed in HEK293 cells; assay type: cell-based
[22] = test system: Cynomolgus monkey; assay: Reduction in serum LH level in castrated male cynomolgus monkey at 30 mg/kg, po administered as single dose after 12 to 24 hrs by RIA method; assay type: functional, organism-based; conditions: Macaca fascicularis
[23] = molecular target: T1, Gonadotropin-releasing hormone receptor (Homo sapiens, UniProt P30968); assay: Displacement of [125I]D-Trp6-LHRH from human GnRH receptor expressed in CHO-K1 cell membranes incubated for 1 hr by competitive binding assay
T1 sequence (P30968 whole entry): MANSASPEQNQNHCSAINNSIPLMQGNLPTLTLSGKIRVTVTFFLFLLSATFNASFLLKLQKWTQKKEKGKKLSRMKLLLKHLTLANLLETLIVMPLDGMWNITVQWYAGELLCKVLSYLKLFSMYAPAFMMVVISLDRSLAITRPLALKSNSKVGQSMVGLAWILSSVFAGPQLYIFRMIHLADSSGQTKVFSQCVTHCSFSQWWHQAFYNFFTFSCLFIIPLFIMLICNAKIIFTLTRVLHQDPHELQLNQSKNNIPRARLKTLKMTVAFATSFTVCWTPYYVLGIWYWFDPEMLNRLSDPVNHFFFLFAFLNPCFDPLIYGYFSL

[24] = molecular target: T1, Gonadotropin-releasing hormone receptor; assay: Antagonist activity against human GnRH receptor expressed in HEK293 cells co-transfected with pGL4-NFAT promoter AP1-luc assessed as inhibition of 20 nM GnRH-induced NFAT activation pre-incubated for 1 hr before GnRH stimulation and measured after 6 hrs by luciferase reporter gene assay; assay type: cell-based
[25] = molecular target: CYP3A4 (Homo sapiens, UniProt P08684); assay: Inhibition of human recombinant CYP3A4 expressed in baculosomes at 10 uM incubated for 30 mins using BOMR substrate by fluorescence based assay; assay type: ADME; conditions: probe BOMR
[26] = molecular target: T2, Gonadotropin-releasing hormone receptor (Macaca mulatta, UniProt Q8SPZ1); assay: Displacement of [125I]D-Trp6-LHRH from monkey GnRH receptor expressed in HEK293 cell membranes incubated for 1 hr by competitive binding assay
T2 sequence (Q8SPZ1 whole entry): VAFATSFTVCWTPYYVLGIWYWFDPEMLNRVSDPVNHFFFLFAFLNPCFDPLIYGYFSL

[27] = molecular target: T3, Gonadotropin-releasing hormone receptor (Rattus norvegicus, UniProt P30969); assay: Displacement of [125I]D-Trp6-LHRH from rat GnRH receptor expressed in HEK293 cell membranes incubated for 1 hr by competitive binding assay
T3 sequence (P30969 whole entry): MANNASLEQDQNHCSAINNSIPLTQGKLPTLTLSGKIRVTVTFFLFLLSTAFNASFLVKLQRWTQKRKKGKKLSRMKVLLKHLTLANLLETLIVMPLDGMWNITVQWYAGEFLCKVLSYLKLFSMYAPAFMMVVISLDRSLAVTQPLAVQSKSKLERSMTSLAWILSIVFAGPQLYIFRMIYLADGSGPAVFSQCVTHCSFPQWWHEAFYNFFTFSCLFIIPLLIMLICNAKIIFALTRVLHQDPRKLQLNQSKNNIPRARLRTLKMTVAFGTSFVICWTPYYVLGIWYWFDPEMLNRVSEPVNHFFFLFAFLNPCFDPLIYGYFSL

[28] = molecular target: T1, Gonadotropin-releasing hormone receptor; assay: Antagonist activity against human GnRH receptor expressed in HEK293 cells co-transfected with pGL4-NFAT promoter AP1-luc assessed as inhibition of 1 nM GnRH-induced NFAT activation pre-incubated for 1 hr before GnRH stimulation and measured after 6 hrs by luciferase reporter gene assay; assay type: cell-based
[29] = molecular target: T2, Gonadotropin-releasing hormone receptor; assay: Antagonist activity against monkey GnRH receptor expressed in HEK293 cells co-transfected with pGL4-NFAT promoter AP1-luc assessed as inhibition of 10 nM GnRH-induced NFAT activation pre-incubated for 1 hr before GnRH stimulation and measured after 6 hrs by luciferase reporter gene assay; assay type: cell-based
[30] = molecular target: T3, Gonadotropin-releasing hormone receptor; assay: Antagonist activity against rat GnRH receptor expressed in HEK293 cells co-transfected with pGL4-NFAT promoter AP1-luc assessed as inhibition of 1 nM GnRH-induced NFAT activation pre-incubated for 1 hr before GnRH stimulation and measured after 6 hrs by luciferase reporter gene assay; assay type: cell-based
[31] = molecular target: T1, Gonadotropin-releasing hormone receptor; assay: Antagonist activity against human GnRH receptor expressed in HEK293 cells assessed as reduction in ERK1/2 phosphorylation pre-incubated for 5 mins before LHRH stimulation for 5 mins by chemiluminescence based assay; assay type: cell-based
[32] = molecular target: T1, Gonadotropin-releasing hormone receptor; assay: Antagonist activity against human GnRH receptor expressed in […] assessed as inhibition of LHRH-induced calcium flux by FLIPR assay; assay type: functional, cell-based

CYP3A4, sequence (P08684 whole entry): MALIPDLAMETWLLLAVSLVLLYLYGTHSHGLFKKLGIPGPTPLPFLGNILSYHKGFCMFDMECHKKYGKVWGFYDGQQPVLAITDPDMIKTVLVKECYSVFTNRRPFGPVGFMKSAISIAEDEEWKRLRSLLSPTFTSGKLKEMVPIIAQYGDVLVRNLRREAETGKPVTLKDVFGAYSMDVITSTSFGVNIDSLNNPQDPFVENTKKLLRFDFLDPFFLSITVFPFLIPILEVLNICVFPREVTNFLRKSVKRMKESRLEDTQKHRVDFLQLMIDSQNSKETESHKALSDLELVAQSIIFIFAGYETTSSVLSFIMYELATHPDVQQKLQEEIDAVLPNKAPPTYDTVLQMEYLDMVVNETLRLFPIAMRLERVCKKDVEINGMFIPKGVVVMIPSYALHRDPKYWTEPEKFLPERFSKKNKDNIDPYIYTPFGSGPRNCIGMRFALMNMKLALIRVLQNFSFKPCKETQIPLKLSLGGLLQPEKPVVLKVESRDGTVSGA

Row | Compound | IC50 [23] | IC50 [24] | inhibition at 0.5 h, 10 µM [25] | further results
1 | Cc1c(N2CCN(Cc3ccc(C(F)(F)F)o3)CC2)c(=O)n(C[C@H](NCCCC(=O)O)c2ccccc2)c(=O)n1Cc1c(F)cccc1C(F)(F)F.Cl | – | – | – | Cmax [1]: 500 ng/mL; Cmax [2]: 2700 ng/mL; Cmax [3]: 300 ng/mL; Tmax [4]: 1.6 h; Tmax [5]: 1.3 h; Tmax [6]: 1.7 h; half-life [7]: 1.9 h; half-life [8]: 1.7 h; half-life [9]: 3.5 h; AUC(0-inf) [10]: 1500 ng·h/mL; AUC(0-inf) [11]: 9600 ng·h/mL; AUC(0-inf) [12]: 1300 ng·h/mL; bioavailability [13]: 15.6%; bioavailability [14]: 52.6%; bioavailability [15]: 13.2%; inhibition in vivo at 30 mg/kg [16]: 84%; AUC [17]: 37000 ng·h/mL; Cmax [18]: 5500 ng/mL; inhibition in vivo at 30 mg/kg [19]: 76%
2 | Cc1c(N2CCN(Cc3ccc(C(F)(F)F)o3)CC2)c(=O)n(C[C@H](NCCCC(=O)O)c2ccccc2)c(=O)n1Cc1c(F)cccc1C(F)(F)F [listing 1 of 2 here] | – | – | – | Ratio IC50 [20]: 2; Ratio IC50 [21]: 44; inhibition [22]: Active
3 | Cc1c(N2CCN(Cc3cccc(C(F)(F)F)c3)CC2)c(=O)n(C[C@H](NCCCC(=O)O)c2ccccc2)c(=O)n1Cc1c(F)cccc1C(F)(F)F | 0.68 nM | 49.5 nM | 22% | –
4 | Cc1c(N2CCN(Cc3cccc([N+](=O)[O-])c3)CC2)c(=O)n(C[C@H](N)c2ccccc2O)c(=O)n1Cc1c(F)cccc1C(F)(F)F | 0.17 nM | 89.3 nM | 97% | –
5 | Cc1c(N2CCN(Cc3cccc([N+](=O)[O-])c3)CC2)c(=O)n(C[C@H](N)c2ccccc2)c(=O)n1Cc1c(F)cccc1C(F)(F)F | 0.45 nM | 102 to 155 nM | 89% | –
6 | Cc1c(N2CCN(Cc3ccc(C(F)(F)F)o3)CC2)c(=O)n(C[C@H](N)c2ccccc2)c(=O)n1Cc1c(F)cccc1C(F)(F)F | 0.95 nM | 12.6 nM | 96% | –
7 | Cc1c(N2CCN(Cc3cccc(C(=O)NCCC(=O)O)c3)CC2)c(=O)n(C[C@H](N)c2ccccc2)c(=O)n1Cc1c(F)cccc1C(F)(F)F | 1.2 nM | 146 nM | 72% | –
8 | Cc1c(N2CCN(Cc3cccc([N+](=O)[O-])c3)CC2)c(=O)n(C[C@H](N)c2ccccc2OCC(=O)O)c(=O)n1Cc1c(F)cccc1C(F)(F)F | 0.23 nM | 27.7 nM | 30% | –
9 | Cc1c(N2CCN(Cc3cccc([N+](=O)[O-])c3)CC2)c(=O)n(C[C@H](NCCCC(=O)O)c2ccccc2)c(=O)n1Cc1c(F)cccc1C(F)(F)F | 1.42 nM | 60 nM | 17% | –
10 | Cc1c(N2CCN(Cc3ccc(C(F)(F)F)o3)CC2)c(=O)n(C[C@H](NCCCP(=O)(O)O)c2ccccc2)c(=O)n1Cc1c(F)cccc1C(F)(F)F | 1.2 nM | 411 nM | 16% | –
11 | Cc1c(N2CCN(Cc3ccc(C(F)(F)F)o3)CC2)c(=O)n(C[C@H](NCCCC(=O)O)c2ccccc2)c(=O)n1Cc1c(F)cccc1C(F)(F)F [listing 2 of 2 here] | 0.44 to 0.46 nM | 13 nM | 21% | IC50 [26]: 3.7 nM; IC50 [27]: 520 nM; IC50 [28]: 6.32 nM; IC50 [29]: 13.2 nM; IC50 [30]: 279 nM; IC50 [31]: 2.9 nM; IC50 [32]: 0.76 nM
12 | CCOP(=O)(O)CCCN[C@@H](Cn1c(=O)c(N2CCN(Cc3ccc(C(F)(F)F)o3)CC2)c(C)n(Cc2c(F)cccc2C(F)(F)F)c1=O)c1ccccc1 | 1.8 nM | 184 nM | 45% | –
13 | Cc1c(N2CCN(Cc3cccc(C(=O)NCCCC(=O)O)c3)CC2)c(=O)n(C[C@H](N)c2ccccc2)c(=O)n1Cc1c(F)cccc1C(F)(F)F | 1.1 nM | 376 nM | 66% | –
